# Like-named read-outs stand apart in the source and are kept apart here. Non-standard residues stand in square brackets, D forms with d. Residues, ends and D or L forms follow the SMILES beside them. *: point of attachment. Pentanoyl(5-NH-cholesteryl) = CC(C)CCC[C@@H](C)[C@H]1CC[C@H]2[C@@H]3CC=C4C[C@@H](NCCCCC(=O)*)CC[C@]4(C)[C@H]3CC[C@]12C; Cholesteryloxycarbonyl = CC(C)CCC[C@@H](C)[C@H]1CC[C@H]2[C@@H]3CC=C4C[C@@H](OC(=O)*)CC[C@]4(C)[C@H]3CC[C@]12C; PEG3 = NCCOCCOCCOCCC(=O)O; Pra = C#CC[C@H](N)C(=O)O; Aib = CC(C)(N)C(=O)O; Ahx = NCCCCCC(=O)O; βAla = NCCC(=O)O
# Key:
# [1] = test system: endosomes of Jurkat lymphocytes; assay: Endosome disruption in Jurkat lymphocytes: release of carboxyfluorescein from disulfide probe Compound 2, flow cytometry; details: for Efficacy (% of max. 1): % change in cellular fluorescence relative to maximal response of Compound 1 (100%); for Efficacy (% of 1): % of the effect of compound 1, calculated span of dose-response curve, ± standard deviation
# Summary of the method: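 Human Jurkat cells treated with compounds plus disulfide probe Compound 2 (2.5 μM) for 14 h at 37 °C. Cytoplasmic release of pH-sensitive fluorophore Compound 3 quantified by flow cytometry. IC50 by non-linear regression; efficacy as % fluorescence change relative to Compound 1 maximum (100%).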
# [2] = Thermodynamic solubility in PBS (pH 7.4); type: physicochemical; details: for solubility thermodynamic at 24 h / solubility at 24 h: phosphate buffered saline
# Source text: Values in parentheses represent 95% confidence intervals. N.D., not determined.
# Measurements represent duplicate or more replicates, with active peptides subjected to multiple replicates. ND: not determined. The peptide was non-toxic and soluble in cell culture medium at this concentration.
# [3] = pH 7.4, Table 1, PBS pH 7.4, 24 hours at 22° C., ±S.D., read-out: Solubility (aq.)
# [4] = read-out: Potency (EC50), Table 1, Jurkat lymphocytes, probe Compound 2 (2.5 μM), 14 hours, 95% confidence interval in neighbouring cell
# [5] = read-out: Potency, Table 2, EC50 ± standard deviation, Jurkat lymphocytes, disulfide-linked fluorescent probe (2.5 μM), 14 h
# [6] = read-out: Toxicity, Table 3, IC50, Jurkat, 48 h at 37° C., footnote a: non-toxic and soluble in cell culture medium at this concentration
# [7] = pH 7.4, Table 3, PBS pH 7.4, 24 h at 22° C., read-out: Solubility
# [8] = Table 1, PBS pH 7.4, 24 hours at 22° C., ±S.D., read-out: Solubility (aq.)
Structure (SMILES),EC50 ([1]; 14 h),IC50 (Jurkat lymphocytes; 48 h),"solubility thermodynamic at 24 h [2, 3]","Efficacy (% of 1) ([1]; Table 2, Jurkat, 14 h)","EC50 [1, 5]",IC50 (Jurkat lymphocytes; [6]),"solubility thermodynamic at 24 h [2, 7]",further results
"C#CC[C@H](NC(=O)[C@H](CCC(=O)O)NC(=O)[C@H](CCC(=O)O)NC(=O)CCNC(=O)CCCCN[C@H]1CC[C@@]2(C)C(=CC[C@H]3[C@@H]4CC[C@H]([C@H](C)CCCC(C)C)[C@@]4(C)CC[C@@H]32)C1)C(=O)NCCOCCOCCOCCC(=O)NCCOCCOCCOCCC(=O)NC(C)(C)C(=O)NC(C)(C)C(=O)NC(C)(C)C(=O)NC(C)(C)C(=O)N[C@@H](Cc1ccc(O)cc1)C(=O)N[C@@H](Cc1ccc(O)cc1)C(=O)N[C@@H](C)C(=O)N[C@@H](Cc1ccc(O)cc1)C(=O)N[C@@H](Cc1ccc(O)cc1)C(=O)N1CCC[C@H]1C(=O)N1CCC[C@H]1C(=O)N[C@H](C(=O)N[C@H](C(N)=O)C(C)C)C(C)C [Compound 30, R = BEEZOOUUUUYYAYYPPVV-CONH2] ({Pentanoyl(5-NH-cholesteryl)-βAla}-EE[Pra][PEG3][PEG3][Aib][Aib][Aib][Aib]YYAYYPPVV-NH2)",0.03 µM,2 µM,< 5 µM,,,,,"Solubility (aq., μM) ([2]; Table 1, PBS pH 7.4, 24 hours at 22° C., ±S.D.): 3 ± 1 µM"
CC(C)[C@H](NC(=O)[C@@H](NC(=O)[C@@H]1CCCN1C(=O)[C@@H]1CCCN1C(=O)[C@H](Cc1ccc(O)cc1)NC(=O)[C@H](Cc1c[nH]c2ccccc12)NC(=O)[C@H](C)NC(=O)[C@H](Cc1c[nH]c2ccccc12)NC(=O)[C@H](Cc1c[nH]c2ccccc12)NC(=O)C(C)(C)NC(=O)C(C)(C)NC(=O)C(C)(C)NC(=O)C(C)(C)N)C(C)C)C(N)=O [Compound 54] (H-[Aib][Aib][Aib][Aib]WWAWYPPVV-NH2),,,,101 ± 2%,5.4 ± 1.6 µM,> 16 µM,8 ± 1 µM,"Efficacy (% of max. 1) ([1]; Table 1, Jurkat, 14 hours): 100%; EC50 [1, 4]: 3.8 µM"
"C#CC[C@H](NC(=O)[C@H](CCC(=O)O)NC(=O)[C@H](CCC(=O)O)NC(=O)CCNC(=O)CCNC(=O)O[C@H]1CC[C@@]2(C)C(=CC[C@H]3[C@@H]4CC[C@H]([C@H](C)CCCC(C)C)[C@@]4(C)CC[C@@H]32)C1)C(=O)NCCOCCOCCOCCC(=O)NCCOCCOCCOCCC(=O)NC(C)(C)C(=O)NC(C)(C)C(=O)NC(C)(C)C(=O)NC(C)(C)C(=O)N[C@@H](Cc1ccc(O)cc1)C(=O)N[C@@H](Cc1ccc(O)cc1)C(=O)N[C@@H](C)C(=O)N[C@@H](Cc1ccc(O)cc1)C(=O)N[C@@H](Cc1ccc(O)cc1)C(=O)N1CCC[C@H]1C(=O)N1CCC[C@H]1C(=O)N[C@H](C(=O)N[C@H](C(N)=O)C(C)C)C(C)C [Compound 38, R″ = BEEZOOUUUUYYAYYPPVV-CONH2] ({Cholesteryloxycarbonyl-βAla-βAla}-EE[Pra][PEG3][PEG3][Aib][Aib][Aib][Aib]YYAYYPPVV-NH2)",0.04 µM,8 µM,1060 ± 19 µM,,,,,"IC50 ([1]; 14 h): 0.04 µM; Selectivity for disruption of endosomes over toxicity to cells in culture ([1]; Jurkat, toxicity after 48 hours): greater than hundredfold"
CC(=O)NC(C)(C)C(=O)NC(C)(C)C(=O)NC(C)(C)C(=O)N[C@@H](Cc1c[nH]c2ccccc12)C(=O)N[C@@H](Cc1c[nH]c2ccccc12)C(=O)N[C@@H](C)C(=O)N[C@@H](Cc1ccc(O)cc1)C(=O)N[C@@H](Cc1c[nH]c2ccccc12)C(=O)N1CCC[C@H]1C(=O)N1CCC[C@H]1C(=O)N[C@H](C(=O)N[C@@H](C)C(N)=O)C(C)C [Compound 41] (Ac-[Aib][Aib][Aib]WWAYWPPVA-NH2),,,24 ± 3 µM,,,,,"Endosome disruption activity (in words) ([1]; Jurkat endosome disruption assay): substantial endosome disruption activity; Efficacy (% of max. 1) ([1]; Table 1, Jurkat, 14 hours): 53%; EC50 [1, 4]: 5.9 µM; IC50 (Jurkat lymphocytes; read-out: Toxicity (IC50), Table 1, Jurkat lymphocytes, 48 h at 37° C.): > 100 µM"
"CC(C)CCC[C@@H](C)[C@H]1CC[C@H]2[C@@H]3CC=C4C[C@@H](NCCCCC(=O)NCCC(=O)N[C@@H](CCC(=O)O)C(=O)N[C@@H](CCC(=O)O)C(=O)NCCOCCOCCOCCC(=O)NCCOCCOCCOCCC(=O)NC(C)(C)C(=O)NC(C)(C)C(=O)NC(C)(C)C(=O)NC(C)(C)C(=O)N[C@@H](Cc5c[nH]c6ccccc56)C(=O)N[C@@H](Cc5c[nH]c6ccccc56)C(=O)N[C@@H](C)C(=O)N[C@@H](Cc5ccc(O)cc5)C(=O)N[C@@H](Cc5c[nH]c6ccccc56)C(=O)N5CCC[C@H]5C(=O)N5CCC[C@H]5C(=O)N[C@H](C(=O)N[C@@H](C)C(N)=O)C(C)C)CC[C@]4(C)[C@H]3CC[C@]12C [Compound 26, R = BEEOOUUUUWWAYWPPVA-CONH2] ({Pentanoyl(5-NH-cholesteryl)-βAla}-EE[PEG3][PEG3][Aib][Aib][Aib][Aib]WWAYWPPVA-NH2)",0.1 µM,8 µM,,,,,,"solubility at 24 h [2, 8]: 14 µM"
"CC(C)CCC[C@@H](C)[C@H]1CC[C@H]2[C@@H]3CC=C4C[C@@H](NCCCCC(=O)NCCC(=O)N[C@@H](CCC(=O)O)C(=O)N[C@@H](CCC(=O)O)C(=O)NCCCCCC(=O)NCCCCCC(=O)NC(C)(C)C(=O)NC(C)(C)C(=O)NC(C)(C)C(=O)NC(C)(C)C(=O)N[C@@H](Cc5ccc(O)cc5)C(=O)N[C@@H](Cc5ccc(O)cc5)C(=O)N[C@@H](C)C(=O)N[C@@H](Cc5ccc(O)cc5)C(=O)N[C@@H](Cc5ccc(O)cc5)C(=O)N5CCC[C@H]5C(=O)N5CCC[C@H]5C(=O)N[C@H](C(=O)N[C@H](C(N)=O)C(C)C)C(C)C)CC[C@]4(C)[C@H]3CC[C@]12C [Compound 25, R = BEEXXUUUUYYAYYPPVV-CONH2] ({Pentanoyl(5-NH-cholesteryl)-βAla}-EE[Ahx][Ahx][Aib][Aib][Aib][Aib]YYAYYPPVV-NH2)",0.09 µM,9 µM,22 ± 1 µM,,,,,
CC(C)[C@H](NC(=O)[C@@H](NC(=O)[C@@H]1CCCN1C(=O)[C@@H]1CCCN1C(=O)[C@H](Cc1c[nH]c2ccccc12)NC(=O)[C@H](Cc1c[nH]c2ccccc12)NC(=O)[C@H](C)NC(=O)[C@H](Cc1ccc(O)cc1)NC(=O)[C@H](Cc1c[nH]c2ccccc12)NC(=O)C(C)(C)NC(=O)C(C)(C)NC(=O)C(C)(C)NC(=O)C(C)(C)N)C(C)C)C(N)=O [Compound 53] (H-[Aib][Aib][Aib][Aib]WYAWWPPVV-NH2),,,,96 ± 12%,6.7 ± 0.8 µM,> 16 µM,29 ± 3 µM,"Efficacy (% of max. 1) ([1]; Table 1, Jurkat, 14 hours): 104%; EC50 [1, 4]: 7.1 µM"
"C#CC[C@H](NC(=O)CCNC(=O)CCNC(=O)O[C@H]1CC[C@@]2(C)C(=CC[C@H]3[C@@H]4CC[C@H]([C@H](C)CCCC(C)C)[C@@]4(C)CC[C@@H]32)C1)C(=O)NCCOCCOCCOCCC(=O)NCCOCCOCCOCCC(=O)NC(C)(C)C(=O)NC(C)(C)C(=O)NC(C)(C)C(=O)NC(C)(C)C(=O)N[C@@H](Cc1c[nH]c2ccccc12)C(=O)N[C@@H](Cc1c[nH]c2ccccc12)C(=O)N[C@@H](C)C(=O)N[C@@H](Cc1ccc(O)cc1)C(=O)N[C@@H](Cc1c[nH]c2ccccc12)C(=O)N1CCC[C@H]1C(=O)N1CCC[C@H]1C(=O)N[C@H](C(=O)N[C@@H](C)C(N)=O)C(C)C [Compound 33, R″ = BZOOUUUUWWAYWPPVA-CONH2] ({Cholesteryloxycarbonyl-βAla-βAla}-[Pra][PEG3][PEG3][Aib][Aib][Aib][Aib]WWAYWPPVA-NH2)",0.13 µM,> 100 µM,,,,,,"solubility at 24 h [2, 8]: 2 µM"
"C#CC[C@H](NC(=O)[C@H](CCC(=O)O)NC(=O)[C@H](CCC(=O)O)NC(=O)CCNC(=O)CCNC(=O)O[C@H]1CC[C@@]2(C)C(=CC[C@H]3[C@@H]4CC[C@H]([C@H](C)CCCC(C)C)[C@@]4(C)CC[C@@H]32)C1)C(=O)NCCOCCOCCOCCC(=O)NCCOCCOCCOCCC(=O)NC(C)(C)C(=O)NC(C)(C)C(=O)NC(C)(C)C(=O)NC(C)(C)C(=O)N[C@@H](Cc1c[nH]c2ccccc12)C(=O)N[C@@H](Cc1c[nH]c2ccccc12)C(=O)N[C@@H](C)C(=O)N[C@@H](Cc1ccc(O)cc1)C(=O)N[C@@H](Cc1ccc(O)cc1)C(=O)N1CCC[C@H]1C(=O)N1CCC[C@H]1C(=O)N[C@H](C(=O)N[C@H](C(N)=O)C(C)C)C(C)C [Compound 37, R″ = BEEZOOUUUUWWAYYPPVV-CONH2] ({Cholesteryloxycarbonyl-βAla-βAla}-EE[Pra][PEG3][PEG3][Aib][Aib][Aib][Aib]WWAYYPPVV-NH2)",0.04 µM,3 µM,348 ± 13 µM,,,,,IC50 ([1]; 14 h): 0.04 µM
CC(C)[C@H](NC(=O)[C@@H](NC(=O)[C@@H]1CCCN1C(=O)[C@@H]1CCCN1C(=O)[C@H](Cc1ccc(O)cc1)NC(=O)[C@H](Cc1c[nH]c2ccccc12)NC(=O)[C@H](Cc1ccc(O)cc1)NC(=O)[C@H](Cc1c[nH]c2ccccc12)NC(=O)[C@H](C)NC(=O)[C@H](Cc1ccc(O)cc1)NC(=O)[C@H](Cc1c[nH]c2ccccc12)NC(=O)[C@H](C)NC(=O)C(C)(C)NC(=O)C(C)(C)NC(=O)C(C)(C)NC(=O)C(C)(C)N)C(C)C)C(N)=O [Compound 81] (H-[Aib][Aib][Aib][Aib]AWYAWYWYPPVV-NH2),,,,83 ± 13%,9 ± 6 µM,> 8 µM,3 ± 1 µM,
CC(=O)NC(C)(C)C(=O)NC(C)(C)C(=O)NC(C)(C)C(=O)NC(C)(C)C(=O)N[C@@H](Cc1c[nH]c2ccccc12)C(=O)N[C@@H](Cc1c[nH]c2ccccc12)C(=O)N[C@@H](C)C(=O)N[C@@H](Cc1c[nH]c2ccccc12)C(=O)N[C@@H](Cc1ccc(O)cc1)C(=O)N1CCC[C@H]1C(=O)N1CCC[C@H]1C(=O)N[C@H](C(=O)N[C@H](C(N)=O)C(C)C)C(C)C [Compound 78] (Ac-[Aib][Aib][Aib][Aib]WWAWYPPVV-NH2),,,,70 ± 2%,2.3 ± 0.3 µM,> 16 µM,5 ± 1 µM,
